Assay results published in US20240300894A1, “PRODRUGS OF KV7 CHANNEL OPENERS” (Xyzagen, Inc., priority 2021, published 2024).

Tests used:
[1] = Acid and organic solution stability, HPLC-UV 250 nm; conditions: for Colour of solution: by Day 9; for Degradation / conversion to ezogabine in solution: up to 3 weeks, acidic solutions and organic solvents; for Ezogabine Area: room temp., normal light
Protocol: An HPLC-UV Vis method was developed using 0.1% Formic acid in water as mobile phase A and 0.1% Formic acid in acetonitrile as mobile Phase B. A gradient method was developed ramping from 10% A to 90% B over 8 minutes and then returning to 10% A at 8.5 minutes on a 4.6×50 mm Zorbax C-18 column. Injections of 10 uL of stability solutions were injected for analyte detection.
[…] Aliquots were collected at serial time points and then diluted to a nominal concentration of 100 ug/mL for injection to the HPLC and 250 nm monitored by the diode array detector. Data at approximately 10 days is presented.
Aliquots were collected at serial time points and then diluted to a nominal concentration of 100 ug/mL for injection to the HPLC and 250 nm monitored by the diode array detector.
(§1) It was also evaluated at 2 N HCl at 37° C. Aliquots were collected at serial time points and then diluted to a nominal concentration of 100 ug/mL for injection to the HPLC and 250 nm monitored by the diode array detector.
as §1, §1, §1

[2] = in solvent, exposed to light; known; cited from earlier work
[3] = Pharmacokinetics of ezogabine prodrugs in rat (IV, IM, PO); conditions: male Sprague Dawley rats, PO 20 mg/kg
Protocol: (§2) Blood was diluted by 10% with these stabilizers.
(§3) Extraction of the molecules was conducted by taking a 50 uL aliquot of plasma and adding 200 uL of acetonitrile containing 200 ng/mL tolbutamide as the internal standard. Samples were precipitated in a 96 well plate, centrifuges and an aliquot transferred to a new plate, dried down under heat and nitrogen and then reconstituted in the initial mobile phase conditions of the LC-MS/MS method. […] A standard curve was prepared from 5000 ng/mL to 1 ng/mL for each analyte. Concentration data from the bioanalytical run was analyzed by Phoenix Winnonlin version 8 for noncompartmental PK analysis, plotting of concentration time curves and tabulation of PK parameters.
150 uL of blood were collected at predesignated time points. At completion of the study animals were asphyxiated by carbon dioxide gas and exsanguinated for euthanasia.

[4] = human, in vivo; cited from earlier work
[5] = Pharmacokinetics of ezogabine prodrugs in mouse (SC, PO); conditions: male mice, PO 20 mg/kg, plasma
Protocol: as §2
as §3, with “noncompartmental sparse sampling” for “noncompartmental”
Animals were asphyxiated by carbon dioxide gas, blood was collected by cardiac stick and they were euthanized by cervical dislocation.

[6] = system: CCI model of neuropathic pain; assay: CCI model of neuropathic pain (pin prick, von Frey); format: in vivo, rat; conditions: male Sprague Dawley rats
Protocol: Compound 3 was tested for reversal of mechanical hypersensitivity to the pin prick test for hindlimb paw withdraw and the von Frey hairs for gram force mechanical allodynia in the CCI model of neuropathic pain. Male Sprague Dawley rats (n=8/group) were tested for baseline sensitivity on Day 1 (ipsilateral and contralateral paws) and administered XYG-203 orally; 40 mg/kg on Day 1, 20 mg/kg Day 3, 10 mg/kg Day 5, 5 mg/kg Day 7, 1 mg/kg Day 10 and baseline on Day 12. Mechanical hypersensitivity was tested 1 h after pretreatment. Data (mean±SD) were analyzed with a repeated measures ANOVA with Dunnet's adjustment for multiple comparisons.

[7] = Rat PK at equimolar dose to Ezogabine in 0.5% methylcellulose; conditions: for AUClast/D, analyte = dosed prodrug: male, rat, in vivo, 20 mg/kg; for Exposure of ezogabine compared with ezogabine itself (dose normalized AUC): rats, equimolar dose to Ezogabine (20 mg/kg)
Protocol: (§4) Blood samples were collected at the same time points over 24 hours to generate a concentration time profile. Two male rats were dosed per group. Plasma samples were analyzed by LC/MS/MS and the resulting concentration time profiles and PK parameters are provided.
as §4, §4

[8] = Benchtop solution stability exposed to light, HPLC-UV 230 nm; format: physicochemical
Protocol: Compounds in solvent were left on the benchtop exposed to light for up to 7 days since it is known that Compound 1 will degrade with light within 3-7 days.
Stability was assessed by taking an aliquot from the solubility vials at each test day. A single replicate was injected for each test condition.
Samples were injected onto an HPLC system with an aqueous mobile phase and acetonitrile organic phase and compounds were separated on a C8 50×2 mm column. Wavelength 230 nm was monitored for absorption and integrated for peak area while the mass spectrometer was used to confirm mass. Samples were tested on Day 1 and on subsequent days through Day 7.

[9] = Drug concentration analysis after MES in CF-1 mice; conditions: for Plasma concentration of Compound 1 relative to administration of Compound 1 alone: CF-1, mouse, in vivo, ip
From the text: (§5) Each male CF-1 mouse provided one data point in the MES assay and one data point in the concentration analysis. There were 8 mice per time point.

[10] = system: 5% formalin intraplantar injection; assay: Formalin inflammatory model (hind paw flicks/licks); format: in vivo, mouse; conditions: 100 mg/kg in water SC 30 minutes before 5% formalin; both phases (0-10 min, 15-40 min)
Protocol: Compound 4 was assessed in the rat formalin inflammatory model. The number of flicks/licks of a male CD-1 mouse in the acute phase 0-10 minute and the inflammatory phase from 15-40 min after intraplantar administration of 50 μL of 5% formalin was recorded. […] Data is presented over the duration of the observation periods in 2 minute bins.

MES Induced Seizures [11] = assay: Maximal electroshock (MES) test in SD rats; format: in vivo, rat; conditions: IM 75 mg/kg
Protocol: All treatments were at 0.083, 0.25, 0.5, 1, 2, 4, and 8 hours prior to the administration of MES test, where 6 seconds where 6 seconds without a seizure was considered protected.

[12] = rat, 6 h, 1000 ng/mL
Protocol: Plasma was collected by the biomaterial vendor and kept frozen at −20° C.
The samples were analyzed by HPLC separation and mass spectrometry detection for prodrug amount, relative to a baseline time 0 control sample. Triplicate samples were generated at each time point and the peak area response was averaged and converted to a percent of baseline control.

MES induced seizures [13] = assay: Maximal electroshock (MES) test in CF-1 mice; format: in vivo, mouse; conditions: IP 1.5, 3, 6, 12 and 24 mg/kg
Protocol: All treatments were administered 30 minutes prior to MES, except for Phenytoin which was administered 1 h prior.
as §5

## CCOC(=O)Nc1ccc(NCc2ccc(F)cc2)cc1N [Compound 1, Ezogabine]
[1]; 5 mg/mL, acid solutions, room temperature
  Day by which solution was turning light purple (indicating degradation): up to 2 Day
[1]; 5 mg/mL, organic solvent solutions, room temperature
  Day at which solution began turning purple: ≥ 7 days
[2]
  Time within which compound degrades with light: 3 to 7 days
[3]
  Cmax/D, analyte Cmpd 1: 44.8 ng/mL/mg/kg
[3]; AUClast […] h
  AUClast/D, analyte Cmpd 1: 280 ng·h/mL/mg/kg
[4]
  Adverse reaction rate: abnormal coordination: 7%
  Adverse reaction rate: aphasia: 4%
  Adverse reaction rate: asthenia: 5%
  Adverse reaction rate: balance disorder: 4%
  Adverse reaction rate: blurred vision: 5%
  Adverse reaction rate: confusional state: 9%
  Adverse reaction rate: diplopia: 7%
  Adverse reaction rate: disturbance in attention: 6%
  Adverse reaction rate: dizziness: 23%
  Adverse reaction rate: dysarthria: 4%
  Adverse reaction rate: fatigue: 15%
  Adverse reaction rate: gait disturbance: 4%
  Adverse reaction rate: memory impairment: 6%
  Adverse reaction rate: somnolence: 22%
  Adverse reaction rate: tremor: 8%
  Adverse reaction rate: vertigo: 8%
[5]
  Cmax/D, analyte Cmpd 1: 148 ng/mL/mg/kg
[5]; AUClast 6 h
  AUClast/D, analyte Cmpd 1: 190 ng·h/mL/mg/kg

## CCOC(=O)Nc1ccc(NCc2ccc(F)cc2)cc1NC(=O)OC(C)OC(=O)C(C)C (stereo not shown) [Compound 3]
[6]; oral 5 mg/kg
  Mechanical hypersensitivity versus baseline: 95% confidence intervals did not cross the baseline mean
[6]; oral 40 mg/kg, 1 h after pretreatment
  Gram force to paw lift (von Frey): increased the gram force to paw lift significantly
[6]; oral 40 mg/kg, 1 h after pretreatment, p=0.0003
  Reduction of latency of neuropathic ipsilateral paw withdrawal (pin prick): 9.2 s
[7]
  AUClast/D, analyte = dosed prodrug: 0.0136 ng·h/mL/mg/kg
[8]; 0.1 N HCl, over 4 days
  Stability in solvent: appears to be stable
[8]; ethanol and methanol
  Stability in solvent: stable through 3 days
[1]; 5 mg/mL, 0.1 N HCl
  Colour of solution: turned a light tan
[1]; 5 mg/mL, 1 N HCl
  Colour of solution: turned a golden yellow
[1]; 5 mg/mL, organic solvents
  Solution clear and colorless through: ≥ 18 days
[1]; 5 mg/mL
  Degradation / conversion to ezogabine in solution: converts to ezogabine under acidic conditions but does not in organic solvent
[1]; 0.1N HCl, 433 h
  Ezogabine Area: 400 mAU
[1]; Acetonitrile, 435 h
  Ezogabine Area: 51 mAU
[1]; Ethanol, 390 h
  Ezogabine Area: 43 mAU
[1]; Methanol, 435 h
  Ezogabine Area: 41 mAU
[9]
  Plasma concentration of Compound 1 relative to administration of Compound 1 alone: 5.5 fold

## CCOC(=O)Nc1ccc(NCc2ccc(F)cc2)cc1NC(=O)[C@@H](N)CCCCN [Compound 4]
[7]
  AUClast/D, analyte = dosed prodrug: 6.26 ng·h/mL/mg/kg
  Exposure of ezogabine compared with ezogabine itself (dose normalized AUC): similar
[10]
  Reduction in behavioral response (flicks/licks) compared to vehicle: 50%
[1]; 5 mg/mL, all test solutions
  Solution remained clear and colorless through: ≥ 18 days
[1]; 5 mg/mL
  Degradation / conversion to ezogabine in solution: very little degradation to ezogabine
[1]; 0.1N HCl, 269 h
  Ezogabine Area: 0 mAU
[1]; 1N HCl, 269 h
  Ezogabine Area: 0 mAU
[1]; 2N HCl, 269 h
  Ezogabine Area: 38 mAU
[1]; Methanol, 437 h
  Ezogabine Area: 0 mAU
[1]; PBS, 435 h
  Ezogabine Area: 0 mAU
[9]
  Plasma concentration of Compound 1 relative to administration of Compound 1 alone: 9 fold
MES Induced Seizures [11]; 2 through 8 hours post dose
  Protection from MES seizures: fully protected
MES Induced Seizures [11]; 1 h post dose
  Protection from MES seizures: almost fully protected
[12]
  Stability in plasma: stable through 6 hours

## CCOC(=O)Nc1ccc(NCc2ccc(F)cc2)cc1NC(=O)[C@H](N)CO [Compound 6]
[7]
  AUClast/D, analyte = dosed prodrug: 199 ng·h/mL/mg/kg
  Exposure of ezogabine compared with ezogabine itself (dose normalized AUC): similar
[1]; 5 mg/mL, all test solutions
  Solution remained clear and colorless through: ≥ 18 days
[1]; 5 mg/mL
  Degradation / conversion to ezogabine in solution: very little degradation to ezogabine
[1]; 1N HCl, 437 h
  Ezogabine Area: 58 mAU

## CCOC(=O)Nc1ccc(NCc2ccc(F)cc2)cc1NC(=O)C[C@@H](CN)CC(C)C [Compound 28]
[7]
  AUClast/D, analyte = dosed prodrug: 83.0 ng·h/mL/mg/kg
  Exposure of ezogabine compared with ezogabine itself (dose normalized AUC): lower exposure
[1]; 5 mg/mL, acidic solutions
  Solution remained clear and colorless through: ≥ 18 days
[1]; 5 mg/mL, acidic solutions and acetonitrile
  Solution remained clear and colorless through: ≥ 11 days
[1]; 5 mg/mL
  Degradation / conversion to ezogabine in solution: degradation to ezogabine with increasing strength of the acidic solution
[1]; 0.1N HCl, 440 h
  Ezogabine Area: 0 mAU
[1]; 440 h, 5 mg/mL
  % Remaining: 92.0%
[1]; Methanol, 440 h
  Ezogabine Area: 0 mAU
MES induced seizures [13]
  Complete protection against MES induced seizures: None of the doses showed complete protection
[9]; CF-1 mice, IP, 30 minutes
  Concentration of prodrug relative to ezogabine: present at higher concentrations than ezogabine
